Data taken from patent publication US9522125B1, “Method of treating cancer” (Macau University of Science and Technology, priority 2015, dated 2016).

Assays:
ROS1 kinase = ROS1 kinase (Homo sapiens, UniProt P08922); assay: In vitro ROS1 enzymatic assay (LanthaScreen Eu kinase binding assay); conditions: room temperature, 1 hour
Procedure: 1.2 In Vitro ROS1 Enzymatic Assay
LanthaScreen® Eu kinase binding assay was used to determine the changes in kinase activity, which is an assay based on the binding and displacement property of the kinase with substrate. Briefly, the assay was performed at room temperature for 1 hour in a total volume of 15 μL, including 5 μL of test compound, 5 μL of kinase/antibody mixture and 5 μL of tracer. The signal of the 384-well plate was then measured at the end of the reactions.

HCC78 cells [1] = assay: MTT cytotoxicity assay on HCC78 cells; format: cell-based; conditions: Homo sapiens, 72 h treatment
Procedure: HCC78 cell line was purchased from the American Type Culture Collection (ATCC) (Manassas, Va., USA). Cells were cultured in RPMI-1640 medium containing 10% fetal bovine serum (FBS), 100 units/mL penicillin, and 100 μg/mL streptomycin under a humidified atmosphere of 5% CO2 at 37° C. Mitoxantrone was dissolved in DMSO.
(§1) 1.3 MTT Cytotoxicity Assay
(§2) 3000 cells were seeded on 96-well plates, then the plates were cultured overnight for cell adhesion, and treated with DMSO or various concentrations of mitoxantrone for 72 h. 10 μL of MTT (5 mg/mL; Sigma) was added in each well, and incubation was continued for another 4 hours, then the dark blue crystals were dissolved in 100 μL resolved solution (10% SDS and 0.1 mM HCL). Finally, the absorbance was measured at 570 nm by a microplate reader (Tecan, Morrisville, N.C., USA). The cell viability was calculated relative to untreated controls, and results were presented based on at least 3 independent experiments.

CCD19-Lu cells = assay: MTT cytotoxicity assay on normal lung cells CCD19-Lu; format: cell-based; conditions: 72 h treatment
Procedure: as §1, §2

HCC78 cells [2] = assay: Apoptosis analysis (morphology; Annexin-V FITC/PI flow cytometry) in HCC78 cells; format: cell-based
Procedure: HCC78 cells were seeded on a 6-well plate, and were allowed to attach overnight. The cells were treated with a dilution series of mitoxantrone for 48 h, collected by trypsin and washed twice with ice-cold PBS, and then resuspended in 100 μl 1× binding buffer. 2 μL Annexin-V FITC and 4 μL PI (100 μg/ml) were added to the solution and mixed well. After incubation for 15 min in the dark at room temperature, 400 μL of 1× binding buffer was added to each tube, where apoptosis level was then quantitatively analyzed using a FACSAria III Flow Cytometer (BD Biosciences, San Jose, Calif., USA).

ROS1 phosphorylation = assay: Western blot analysis of ROS1 phosphorylation and downstream signaling in HCC78 cells; format: cell-based; conditions: 48 h, 5 nM, 10 nM and 20 nM
Procedure: 1.5 Western Blot Analysis
After cells were plated on 6-well plates overnight, a wide concentrations of mitoxantrone were administered for 48 h. Cells were washed twice with cold PBS and then lysed in RIPA lysis buffer containing protease and phosphatase inhibitors, and protein concentration of the cell lysates were measured using the Bio-Rad protein Assay kit (Bio-Rad, Philadelphia, Pa., USA). After equalizing the protein concentrations of the samples, 5× laemmli buffer was added and boiled at 100° C. for 5 min. Equal amounts of protein samples (30 μg) were subjected to SDS-PAGE and separated with a 10% gel; then the separated proteins were transferred to a Nitrocellulose (NC) membrane, which was then exposed to 5% non-fat dried milk in TBS containing 0.1% Tween 20 (0.1% TBST) for 1 h at room temperature, followed by overnight incubation at 4° C. with primary anti-bodies (1:1000 dilutions). After being washed 3 times by TBST, the membranes were incubated with secondary fluorescent antibodies (1:10000 dilutions) to rabbit or mouse, the signal intensity of the membranes was detected by an LI-COR Odessy scanner (Belfast, Me., USA). Antibodies against GAPDH, p-AKT, p-ROS1, ROS1, p-ERK, ERK, p-STAT3, STAT3 were purchased from Cell signaling Technology. Anti-AKT antibody was acquired from Santa Cruz Biotechnology.

Chain of ROS1 kinase (P08922 28-2347): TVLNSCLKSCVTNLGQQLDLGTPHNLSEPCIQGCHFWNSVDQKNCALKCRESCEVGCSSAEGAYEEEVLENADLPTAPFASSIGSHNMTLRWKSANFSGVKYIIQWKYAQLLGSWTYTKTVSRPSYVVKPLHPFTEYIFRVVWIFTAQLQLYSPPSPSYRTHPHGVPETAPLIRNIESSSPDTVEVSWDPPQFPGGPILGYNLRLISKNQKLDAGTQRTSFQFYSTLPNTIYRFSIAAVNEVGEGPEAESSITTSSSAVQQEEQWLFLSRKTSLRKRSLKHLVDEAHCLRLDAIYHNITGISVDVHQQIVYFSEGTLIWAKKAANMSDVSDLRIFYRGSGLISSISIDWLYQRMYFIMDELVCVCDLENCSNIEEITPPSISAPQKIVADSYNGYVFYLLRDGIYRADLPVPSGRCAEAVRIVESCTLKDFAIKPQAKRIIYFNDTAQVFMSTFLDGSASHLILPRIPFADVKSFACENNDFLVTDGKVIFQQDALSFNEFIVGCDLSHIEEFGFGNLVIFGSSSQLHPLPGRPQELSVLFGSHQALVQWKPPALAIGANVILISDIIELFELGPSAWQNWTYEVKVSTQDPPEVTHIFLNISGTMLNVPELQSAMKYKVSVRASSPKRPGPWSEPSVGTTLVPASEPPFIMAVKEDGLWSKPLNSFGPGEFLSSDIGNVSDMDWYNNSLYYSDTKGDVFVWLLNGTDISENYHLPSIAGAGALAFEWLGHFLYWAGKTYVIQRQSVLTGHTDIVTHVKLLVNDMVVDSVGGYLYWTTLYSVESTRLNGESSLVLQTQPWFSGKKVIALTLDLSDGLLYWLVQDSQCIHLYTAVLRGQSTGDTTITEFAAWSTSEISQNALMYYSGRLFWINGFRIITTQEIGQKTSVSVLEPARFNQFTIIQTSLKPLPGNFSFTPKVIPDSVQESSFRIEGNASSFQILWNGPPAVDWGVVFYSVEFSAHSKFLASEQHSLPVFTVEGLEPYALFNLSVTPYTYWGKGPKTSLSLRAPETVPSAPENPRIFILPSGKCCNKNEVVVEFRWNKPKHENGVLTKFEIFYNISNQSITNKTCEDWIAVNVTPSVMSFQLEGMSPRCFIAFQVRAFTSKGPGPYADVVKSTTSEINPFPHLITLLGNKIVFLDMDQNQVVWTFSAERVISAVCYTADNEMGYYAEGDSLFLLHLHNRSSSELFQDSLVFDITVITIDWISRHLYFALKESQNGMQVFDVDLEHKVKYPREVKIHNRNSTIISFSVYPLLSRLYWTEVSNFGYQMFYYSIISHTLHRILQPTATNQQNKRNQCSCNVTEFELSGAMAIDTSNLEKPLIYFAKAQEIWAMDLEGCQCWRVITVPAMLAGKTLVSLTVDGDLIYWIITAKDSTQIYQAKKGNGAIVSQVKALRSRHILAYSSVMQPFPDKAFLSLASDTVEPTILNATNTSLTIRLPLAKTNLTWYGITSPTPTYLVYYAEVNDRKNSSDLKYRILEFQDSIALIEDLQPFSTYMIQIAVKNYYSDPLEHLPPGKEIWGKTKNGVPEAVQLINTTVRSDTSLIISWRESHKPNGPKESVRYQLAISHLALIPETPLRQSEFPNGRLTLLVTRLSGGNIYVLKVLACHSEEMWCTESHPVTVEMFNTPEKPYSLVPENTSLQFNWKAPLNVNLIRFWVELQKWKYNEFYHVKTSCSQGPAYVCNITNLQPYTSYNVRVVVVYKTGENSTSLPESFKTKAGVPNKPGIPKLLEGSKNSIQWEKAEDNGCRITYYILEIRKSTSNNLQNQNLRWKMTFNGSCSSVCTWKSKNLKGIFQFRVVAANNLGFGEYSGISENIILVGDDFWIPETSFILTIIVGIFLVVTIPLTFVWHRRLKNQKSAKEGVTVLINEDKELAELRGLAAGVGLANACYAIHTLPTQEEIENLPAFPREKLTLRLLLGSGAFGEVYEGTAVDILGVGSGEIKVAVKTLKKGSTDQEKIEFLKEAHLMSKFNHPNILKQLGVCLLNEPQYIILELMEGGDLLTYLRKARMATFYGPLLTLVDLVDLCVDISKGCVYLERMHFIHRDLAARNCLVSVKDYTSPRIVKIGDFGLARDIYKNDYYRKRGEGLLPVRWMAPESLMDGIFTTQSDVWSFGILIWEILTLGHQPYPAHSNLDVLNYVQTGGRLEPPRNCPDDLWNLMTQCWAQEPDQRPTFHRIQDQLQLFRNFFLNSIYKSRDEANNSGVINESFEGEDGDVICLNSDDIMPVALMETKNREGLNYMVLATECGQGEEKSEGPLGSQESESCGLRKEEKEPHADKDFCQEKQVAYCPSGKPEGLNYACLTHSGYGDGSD

Structure (SMILES): O=C1c2c(O)ccc(O)c2C(=O)c2c(NCCNCCO)ccc(NCCNCCO)c21 [Mitoxantrone, mitoxantrone]
- IC50 (ROS1 kinase): 36 nM
- IC50 (HCC78 cells [1]): 13.8 ± 2.49 nM
- fold of IC50 in CCD19-Lu over IC50 on HCC78 (CCD19-Lu cells): at least 11.6 fold
- IC50 (CCD19-Lu cells; Homo sapiens, CCD 19Lu, CCD19-Lu normal lung cells): > 160 nM
- induction of apoptosis (flow cytometry) (HCC78 cells [2]; 48 h, 5 nM, 10 nM and 20 nM, compared with the control group): induced significant apoptosis levels
- concentration from which cells detached and became smaller (morphological indication of apoptosis) (HCC78 cells [2]; FIG. 4): ≥ 10 nM
- ROS1 phosphorylation and downstream signaling molecules Erk1/2, STAT3 and AKT (western blot) (ROS1 phosphorylation): dose-dependent decrease
